Earlier results on one compound are cited in patent publication US9555015B2, “Antimicrobial compositions and methods for their use” (Dermcare-Vet Pty Ltd, priority 2004, dated 2017).

For data set [1] the following is noted: especially in concentrations as high as 2%, particularly when the tympanic membrane has been ruptured.
The conditions of data set [2]: 0.2% chlorhexidine, external ear, ruptured tympanic membranes.
The conditions of data set [3]: 0.02% chlorhexidine compositions, bladder instillation.

For the compound `[H]/N=C(\N/C(=N/[H])NCCCCCCNC(=N)NC(=N)Nc1ccc(Cl)cc1)Nc1ccc(Cl)cc1` [chlorhexidine], the ototoxicity result in data set [1] is on record as “ototoxic”. Also, in data set [2], the ototoxic effects entry is recorded as “no ototoxic effects”. For the same compound, in data set [3], the bladder adverse effect entry was “chemical cystitis resulting in haematuria”.
